Measured values from article PMC5400251, “Effect of quinoline based 1,2,3-triazole and its structural analogues on growth and virulence attributes of Candida albicans” (PLoS ONE, 2017).
Converted amounts (≈) assume the structure as drawn.

Assays:
C. albicans ATCC 90028 = assay: Broth dilution IC50 determination; format: cell-based; conditions: Candida albicans, ATCC90028, SD broth, 37°C, 24 h, OD 600 nm, read-out: Anti-Candida Activity (IC50± S.D.) C. albicans ATCC90028
Experimental: (§1) Broth dilution technique was employed to determine the IC50 values of all the synthesized 1,2,3 triazole derivatives (3a-c) against C. albicans ATCC 90028, C. glabrata ATCC 90030, C. tropicalis ATCC 750 and four clinical isolates of C. albicans namely D27, D31, D39 (FLC-sensitive) and D15.9 (FLC-resistant). The strains were maintained on yeast extract:peptone:dextrose ([…]) nutrient agar (2.5%) slants at 4°C. The test compounds were dissolved in DMSO with less than 4% concentration of it in the final test volume. Different concentrations (1000… 7.8 μg/mL) of test compounds in Sabouraud dextrose (SD) broth medium were dispensed into the wells, then inoculated with the test organism with approx. 2.5 × 10^3 cells/mL and incubated at 37°C for 24 h. After incubation period, the optical density was measured at 600 nm by using Thermo Scientific Multiskan Go plate reader. […] All the experiments were done in triplicate at separate times.

[1] = test system: C. albicans D27 (FLC-sensitive clinical isolate); assay: Broth dilution IC50 determination; format: cell-based; conditions: Candida albicans, 24 h; read-out: Anti-Candida Activity (IC50± S.D.) C. albicans D27
Experimental: as §1

[2] = test system: C. albicans D31 (FLC-sensitive clinical isolate); assay: Broth dilution IC50 determination; format: cell-based; conditions: Candida albicans, 24 h; read-out: Anti-Candida Activity (IC50± S.D.) C. albicans D31
Experimental: as §1

[3] = test system: C. albicans D39 (FLC-sensitive clinical isolate); assay: Broth dilution IC50 determination; format: cell-based; conditions: Candida albicans, 24 h; read-out: Anti-Candida Activity (IC50± S.D.) C. albicans D39
Experimental: as §1

C. glabrata ATCC 90030 = assay: Broth dilution IC50 determination; format: cell-based; conditions: Nakaseomyces glabratus, ATCC90030, SD broth, 37°C, 24 h, OD 600 nm, read-out: Anti-Candida Activity (IC50± S.D.) C. glabrata ATCC90030
Experimental: as §1

C. tropicalis ATCC 750 = assay: Broth dilution IC50 determination; format: cell-based; conditions: Candida tropicalis, ATCC750, SD broth, 37°C, 24 h, OD 600 nm, read-out: Anti-Candida Activity (IC50± S.D.) C. tropicalis ATCC750
Experimental: as §1

[4] = test system: C. albicans ATCC 90028, C. albicans D27 and C. albicans D15.9; assay: Growth assay (growth curve), all three strains; format: cell-based
Experimental: The C. albicans cells were freshly revived by subculture on the SD agar plate. A loopful of inoculum was introduced into the SD broth and cells were grown for 16 h at 37°C before use. Approximately 2×10^3 cells/mL were then inoculated into the freshly prepared 50 mL sterile SD medium. […] At predetermined time periods (0, 2, 4, 6, 8, 10, 12, 14, 16, 18, 20 22, and 24 after incubation with agitation at 37°C), 1 mL aliquot of each sample was removed from the conical flask and growth was measured tubidometrically at 600 nm using Thermo Multiskan spectrophotometer. Optical density was recorded for each concentration against time (h).

proteinase secretion = assay: Proteinase assay (BSA agar, Pz value); format: cell-based, C. albicans D27 (FLC-susceptible); conditions: at MIC, 1 h exposure
Experimental: Following incubation, 1.5 mL of the yeast culture was taken into micro centrifuge tubes and centrifuged at 3000 rpm, for 5 min. The pellet obtained was washed by phosphate buffer saline (PBS) twice to remove the residual medium. […] Volumes of 1μL were placed at equidistant points on proteinase agar medium (0.1% yeast nitrogen base w/o amino acids; 0.145% ammonium sulfate; 2% glucose with 0.2% (w/v) BSA fraction V mixed into agar at ∼40°C) and incubated at 37°C for 3 days. The experiment was performed in duplicate. Secreted proteinase enzyme will degrade BSA and form zone of clearance around the yeast colonies. An index (Pz value) was used to represent the extent of proteinase activity by different strains of C. albicans. A Pz value of 1.0 depicts no enzyme activity. It was calculated as follows: Pzvalue=diameterofcolony/diameterofcolony+diameterofzoneofdegradation

phospholipase secretion [5] = assay: Phospholipase assay (egg yolk agar, Pz value); format: cell-based, C. albicans D27 (FLC-susceptible)
Experimental: (§2) Phospholipase activity was performed using the method of Price et al. (1982) with minor modifications. The cells were incubated at 37°C for 18 h and then centrifuged at 3000 rpm for 5 min. The pellet obtained was washed with PBS twice to remove the residual culture medium. […] Volumes of 1 μL were placed at equidistant points on phospholipase agar media plates (1% peptone; 3% glucose; 5.73% NaCl; 0.055% CaCl2 with 10% (v/v) egg yolk emulsion) and incubated at 37°C for 4 days. The secretion of phospholipases was determined by the formation of opaque zones due to precipitation around the yeast colonies. The assay was conducted in duplicate. Pz values were calculated as follows: Pzvalue=diameterofcolony/diameterofcolony+diameterofzoneofprecipitaion

phospholipase secretion [6] = assay: Phospholipase assay (egg yolk agar, Pz value); format: cell-based, C. albicans D15.9 (FLC-resistant)
Experimental: as §2

[7] = target: T1, plasma membrane H+ ATPase (Candida albicans, UniProt P28877); assay: Measurement of intracellular pH (pHi); format: cell-based, C. albicans ATCC 90028; conditions: 100 μg/mL; untreated 6.3
T1 construct: endogenous in cells; host or cells: C. albicans ATCC 90028; clinical isolates C. albicans D27 (FLC-susceptible) and D15.9 (FLC-resistant); mid-log phase whole cells
Experimental: In yeast cells, plasma membrane H^+-ATPase helps to maintain internal pH between 6.0 and 7.5. Intracellular pH (pHi) was measured as reported earlier by Manzoor et al.. Mid-log phase cells were harvested from SD medium and washed thrice with PBS. Subsequently, cells (0.1 g) were suspended in 5 mL solution of 0.1 M KCl, and 0.1 mM CaCl2 in distilled water. Compounds 3a and 3b were added to the suspension at a desired concentration of 100 μg/mL. […] Initial pH of the suspension was adjusted to 7.0 in each case and incubated for 30 min at 37°C with constant stirring. After incubation, the pH of suspension was again adjusted to 7.0 followed by the addition of nystatin (20 μM) and incubation at 37°C for 1 h. The change in pH of the suspension was monitored on a pH meter with constant stirring. The value of external pH at which nystatin permeabilization induced no further shift was taken as an estimate of pHi.

ergosterol biosynthesis = assay: Ergosterol estimation assay

T1 sequence (P28877 whole entry): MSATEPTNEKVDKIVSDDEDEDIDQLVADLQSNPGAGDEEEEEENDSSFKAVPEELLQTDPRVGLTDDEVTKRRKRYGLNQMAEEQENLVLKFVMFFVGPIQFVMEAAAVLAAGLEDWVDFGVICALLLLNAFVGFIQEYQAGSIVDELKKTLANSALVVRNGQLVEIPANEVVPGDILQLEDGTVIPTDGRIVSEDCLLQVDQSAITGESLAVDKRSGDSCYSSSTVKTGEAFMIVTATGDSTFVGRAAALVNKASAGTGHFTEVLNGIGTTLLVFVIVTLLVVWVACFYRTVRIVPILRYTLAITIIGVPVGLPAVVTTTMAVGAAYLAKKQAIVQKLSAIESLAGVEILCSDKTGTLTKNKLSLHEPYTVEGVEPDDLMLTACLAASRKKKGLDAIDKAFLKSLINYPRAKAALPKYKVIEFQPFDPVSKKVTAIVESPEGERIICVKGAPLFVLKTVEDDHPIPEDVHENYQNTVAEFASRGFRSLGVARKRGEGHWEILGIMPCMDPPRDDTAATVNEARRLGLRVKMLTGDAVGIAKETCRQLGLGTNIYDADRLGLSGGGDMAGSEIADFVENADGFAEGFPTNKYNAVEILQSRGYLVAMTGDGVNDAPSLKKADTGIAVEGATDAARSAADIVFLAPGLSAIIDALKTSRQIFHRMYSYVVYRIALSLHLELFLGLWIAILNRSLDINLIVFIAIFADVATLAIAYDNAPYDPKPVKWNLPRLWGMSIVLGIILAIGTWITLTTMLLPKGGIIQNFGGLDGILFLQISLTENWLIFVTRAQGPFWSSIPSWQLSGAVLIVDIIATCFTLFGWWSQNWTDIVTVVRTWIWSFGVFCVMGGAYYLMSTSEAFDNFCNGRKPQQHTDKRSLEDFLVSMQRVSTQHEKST

Row | Compound | IC50 (C. albicans ATCC 90028) | IC50 [1] | IC50 [2] | IC50 [3] | IC50 (C. glabrata ATCC 90030) | IC50 (C. tropicalis ATCC 750) | Lag phase (no growth) ([4]; 2MIC, MIC and MIC/2, all three strains) | Decrease of proteinase secretion (proteinase secretion) | Decrease of phospholipase secretion (phospholipase secretion [5]; at MIC, 1 h exposure) | Decrease of phospholipase secretion (phospholipase secretion [5]; at MIC/4, 1 h exposure) | Decrease of phospholipase secretion (phospholipase secretion [6]; at MIC, 1 h exposure) | Decrease of phospholipase secretion (phospholipase secretion [6]; at MIC/4, 1 h exposure) | Intracellular pH (pHi) [7] | Mean decrease in total ergosterol content (ergosterol biosynthesis; above MIC/2, 16 h) | Mean decrease in total ergosterol content (ergosterol biosynthesis; at MIC/4, 16 h) | Growth inhibition ([4]; at 2MIC and MIC)
1 | c1ccc(Cn2cc(COc3cccc4cccnc34)nn2)cc1 [Compound 3a] | 0.044 ± 0.11 µg/mL (≈ 0.139 µM) | 1.9 ± 0.09 µg/mL (≈ 6.01 µM) | 3.3 ± 0.065 µg/mL (≈ 10.4 µM) | 4.1 ± 0.02 µg/mL (≈ 13 µM) | 12.02 ± 0.02 µg/mL (≈ 38 µM) | 3.6 ± 0.07 µg/mL (≈ 11.4 µM) | more than 24 h | 30% | 42% | 25% | 34% | 25% | 5.2 | 100% | 48% | –
2 | Clc1ccc(OCc2cn(Cc3ccccc3)nn2)c2ncccc12 [Compound 3b, 8-((1-Benzyl-1H-1,2,3-triazol-4-yl)methoxy)-5-chloroquinoline] | 25.4 ± 0.76 µg/mL (≈ 72.4 µM) | 33.7 ± 1.51 µg/mL (≈ 96.1 µM) | 41.5 ± 1.24 µg/mL (≈ 118 µM) | 47.1 ± 0.39 µg/mL (≈ 134 µM) | 73.3 ± 1.41 µg/mL (≈ 209 µM) | 23.6 ± 0.83 µg/mL (≈ 67.3 µM) | – | 22% | 46% | 34% | 30% | 25% | 4.7 | 100% | 33% | significant growth inhibition
